Laboratory results as given in patent US10188634B2, “3-(3H-imidazo[4,5-C]pyridin-2-yl)-1 H-pyrazolo[4,3-B]pyridines and therapeutic uses thereof” (Samumed, LLC, priority 2015, dated 2019).
pEC50: −log10 of the molar value.

What was measured:
Type in all cases: cell-based
[1] = test system: Wnt activity (Sp5-Luc reporter, human Sp5 promoter with eight TCF/LEF binding sites) in SW480 colon carcinoma cells; experiment: Screening assay for Wnt activity: Sp5-Luc reporter gene assay in SW480 cells; settings: for inhibition at 10 µM: read-out: percent inhibition at 10 μM (given for EC50 of >10 μM); for pEC50: 10-point dose-response starting from 10 μM, overnight incubation
Summary of the method: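 Luminescence (BrightGlo) read after overnight 37 °C exposure of Sp5-Luc SW480 reporter cells, 4,000/well in 1% FBS, to compound dosed 1:3 over 10 points from 10 μM with 0.1% DMSO. Values normalized to DMSO-only cells, fitted with variable-slope four-parameter model; where EC50 exceeds 10 μM, % inhibition at 10 μM reported.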

SW480 colon cancer cells = experiment: Cell viability assay (CellTiter-Blue) in SW480 colon cancer cells; settings: Homo sapiens, 96 h; for inhibition at 10 µM: four days, CellTiter-Blue, read-out: percent inhibition at 10 μM (given for EC50 of >10 μM); for pEC50: four days incubation, CellTiter-Blue cell viability
Summary of the method: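 Four-day exposure of SW480 cells (~2×10^3/well) to compound from 10 μM down to 0.004 μM in 1:3 steps, in duplicate. Resorufin fluorescence from CellTiter-Blue after ~3 h served as the viability read-out. EC50 values came from nonlinear curve fits, with % inhibition at 10 μM given where EC50 >10 μM.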

[2] = test system: LL29 cells (primary human fibroblasts derived from IPF patients) treated with TGF-β1, α-smooth muscle actin; experiment: Inhibition of the fibrotic process: αSMA staining in TGF-β1 treated primary human fibroblasts from IPF patients (LL29 cells); settings: Fibroblast, 96 h; for pEC50: LL29 cells treated with TGF-β1 (20 ng/mL), 4 days; for inhibition at 10 µM: LL29 cells treated with TGF-β1, 4 days, read-out: percent inhibition in brackets (given for EC50 >10 μM)

SMILES | inhibition at 10 µM [1] | pEC50 [1] | inhibition at 10 µM (SW480 colon cancer cells) | pEC50 (SW480 colon cancer cells) | pEC50 [2] | inhibition at 10 µM [2]
O=C(CC1CCNCC1)Nc1cncc(-c2ccc3[nH]nc(-c4nc5c(-c6ccccn6)cncc5[nH]4)c3n2)c1 [Compound 565, 2-(Piperidin-4-yl)-N-(5-(3-(7-(pyridin-2-yl)-3H-imidazo[4,5-c]pyridin-2-yl)-1H-pyrazolo[4,3-b]pyridin-5-yl)pyridin-3-yl)acetamide] | 44.2% | < 5.00 | 5.1% | < 5.00 | 6.08 | –
c1ncc(-c2ccc3[nH]nc(-c4nc5c(N6CCCCC6)cncc5[nH]4)c3n2)cc1OCCN1CCCC1 [Compound 582, 3-(7-(Piperidin-1-yl)-3H-imidazo[4,5-c]pyridin-2-yl)-5-(5-(2-(pyrrolidin-1-yl)ethoxy)pyridin-3-yl)-1H-pyrazolo[4,3-b]pyridine] | 6.6% | < 5.00 | 15.8% | < 5.00 | 5.48 | –
Oc1cncc(-c2ccc3[nH]nc(-c4nc5c(N6CCCCC6)cncc5[nH]4)c3n2)c1 [Compound 585, 5-(3-(7-(Piperidin-1-yl)-3H-imidazo[4,5-c]pyridin-2-yl)-1H-pyrazolo[4,3-b]pyridin-5-yl)pyridin-3-ol] | 4.3% | < 5.00 | 2.4% | < 5.00 | < 5.00 | 39.1%
Cc1cn(-c2cncc3[nH]c(-c4n[nH]c5ccc(C6=CCNCC6)nc45)nc23)cn1 [Compound 590, 3-(7-(4-Methyl-1H-imidazol-1-yl)-3H-imidazo[4,5-c]pyridin-2-yl)-5-(1,2,3,6-tetrahydropyridin-4-yl)-1H-pyrazolo[4,3-b]pyridine] | 6.8% | < 5.00 | 10% | < 5.00 | < 5.00 | 36.8%
Cc1cn(-c2cncc3[nH]c(-c4n[nH]c5ccc(-c6cncc(OCCN(C)C)c6)nc45)nc23)cn1 [Compound 599, N,N-Dimethyl-2-((5-(3-(7-(4-methyl-1H-imidazol-1-yl)-3H-imidazo[4,5-c]pyridin-2-yl)-1H-pyrazolo[4,3-b]pyridin-5-yl)pyridin-3-yl)oxy)ethan-1-amine] | 6.3% | < 5.00 | 7.1% | < 5.00 | < 5.00 | 15.4%
CN1CCN(c2cncc3[nH]c(-c4n[nH]c5ccc(-c6cnccn6)nc45)nc23)CC1 [Compound 620, 3-(7-(4-Methylpiperazin-1-yl)-3H-imidazo[4,5-c]pyridin-2-yl)-5-(pyrazin-2-yl)-1H-pyrazolo[4,3-b]pyridine] | 5.8% | < 5.00 | 48.8% | < 5.00 | < 5.00 | 34.1%
O=C(CC1CCNCC1)Nc1cncc(-c2ccc3[nH]nc(-c4nc5c(-c6ccsc6)cncc5[nH]4)c3n2)c1 [Compound 629, 2-(Piperidin-4-yl)-N-(5-(3-(7-(thiophen-3-yl)-3H-imidazo[4,5-c]pyridin-2-yl)-1H-pyrazolo[4,3-b]pyridin-5-yl)pyridin-3-yl)acetamide] | 30.6% | < 5.00 | 2.8% | < 5.00 | 5.59 | –
Cc1ncc(-c2ccc3[nH]nc(-c4nc5c(-c6ccoc6)cncc5[nH]4)c3n2)n1C [Compound 641, 5-(1,2-Dimethyl-1H-imidazol-5-yl)-3-(7-(furan-3-yl)-3H-imidazo[4,5-c]pyridin-2-yl)-1H-pyrazolo[4,3-b]pyridine] | – | 6.04 | – | 5.54 | < 5.00 | 0%
CC(C)CC(=O)Nc1cncc(-c2ccc3[nH]nc(-c4nc5c(-c6ccc(Cl)s6)cncc5[nH]4)c3n2)c1 [Compound 992, N-(5-(3-(7-(5-Chlorothiophen-2-yl)-3H-imidazo[4,5-c]pyridin-2-yl)-1H-pyrazolo[4,3-b]pyridin-5-yl)pyridin-3-yl)-3-methylbutanamide] | – | 5.39 | 25.1% | < 5.00 | 5.64 | –
CC(C)(C)C(=O)Nc1cncc(-c2ccc3[nH]nc(-c4nc5c(-c6ccc(Cl)s6)cncc5[nH]4)c3n2)c1 [Compound 998, N-(5-(3-(7-(5-Chlorothiophen-2-yl)-3H-imidazo[4,5-c]pyridin-2-yl)-1H-pyrazolo[4,3-b]pyridin-5-yl)pyridin-3-yl)pivalamide] | – | 6.26 | 1.5% | < 5.00 | 5.57 | –
Clc1ccc(-c2cncc3[nH]c(-c4n[nH]c5ccc(-c6cncc(CN7CCCC7)c6)nc45)nc23)s1 [Compound 1004, 3-(7-(5-Chlorothiophen-2-yl)-3H-imidazo[4,5-c]pyridin-2-yl)-5-(5-(pyrrolidin-1-ylmethyl)pyridin-3-yl)-1H-pyrazolo[4,3-b]pyridine] | – | 5.42 | – | 5.53 | 5.46 | –
O=C(Nc1cncc(-c2ccc3[nH]nc(-c4nc5c(-c6ccc(Cl)s6)cncc5[nH]4)c3n2)c1)C1CCC1 [Compound 1011, N-(5-(3-(7-(5-Chlorothiophen-2-yl)-3H-imidazo[4,5-c]pyridin-2-yl)-1H-pyrazolo[4,3-b]pyridin-5-yl)pyridin-3-yl)cyclobutanecarboxamide] | – | 6.10 | – | 5.60 | 5.98 | –
